Measurements from US20160136295A1, “BIOMARKERS FOR TREATMENT WITH ANTI-TUBULIN CHEMOTHERAPEUTIC COMPOUNDS” (GENENTECH, INC., priority 2012, published 2016).
Square brackets hold non-standard residues; d marks the D form. Peptide text beside a SMILES is read from it. * marks the point of attachment. Dolaproine = CO[C@@H]([C@@H]1CCCN1)[C@@H](C)C(=O)O; Dil = CC[C@H](C)[C@H](NC)[C@@H](CC(=O)O)OC; X1 = C[C@@H](N*)[C@@H](O)c1ccccc1; NMeV = CN[C@H](C(=O)O)C(C)C

Key:
[1] = test system: murine embryonic fibroblasts (MEFs); test: Viability of BCL2-family-member-null MEFs by propidium iodide staining after anti-tubulin agents; assay type: cell-based; conditions: for killing (cell viability): treated 48 hours; for sensitivity to killing: 48 hours
Description: (§1) The viability of cancer cell lines, and MEFs in which genes encoding IAPs had been knocked out, was analysed by using the CellTiter-Glo Luminescent Cell Viability Assay® (Promega). Cells were treated in triplicate with anti-tubulin agents for the indicated times, using dimethylsulphoxide treatment as a control. The viability of BCL2-family-member-null MEFs was analysed by propidium iodide staining, as described previously (Chen, L. et al. (2005) Molecular cell 17:393-403), after treatment with anti-tubulin agents for 48 h. Cell synchronization was achieved by culture either in serum-free medium for 12-16 h or in medium containing 2 mM thymidine for 18-24 h, release from the thymidine block with three washes in PBS, followed by culture for 8-12 h in complete growth media (compositions are described in the Supplementary Information). Cells then underwent a second thymidine block for 16-20 h, three further washes in PBS and release into complete medium containing the indicated reagents. To block MCL1 degradation, […] MG132 was added as cells entered mitotic arrest, as assessed by visual inspection. See the Examples for full methods.

[2] = test system: MEFs in which genes encoding IAPs had been knocked out; test: Cell viability of MEF cell lines deficient in IAP genes (CellTiter-Glo); assay type: cell-based, murine; conditions: IAP-deficient MEFs plus siRNA, 48 hours
Description: as §1

[3] = test system: Mcl-1; test: Mcl-1 protein level / degradation in mitotic arrest (western blot of synchronized cells); assay type: cell-based, human; conditions: for maintenance of mitotic arrest (cdc27 phosphorylation) / Mcl-1 degradation in mitotic arrest: HeLa released into paclitaxel; for maintenance of mitotic arrest (cdc27 phosphorylation): CGP74514A 2 μM or roscovitine 2.5 μM; for Mcl-1 degradation in mitotic arrest: CGP74514A 2 μM, FR180204 2 μM, SP600125 25 μM, SB203580 2 μM added on entry into mitotic arrest
Description: as §1
(§2) Western blotting was performed essentially as described (Wertz, I. E. et al. (2004) Science (New York, N.Y 303:1371-1374). In brief, cells were lysed in corrected FLAG elution buffer (CFEB) (19.17 mM Tris (pH 7.5), 916.7 μM MgCl2, 92.5 mM NaCl and 0.1% Triton X-100) with protease and phosphatase inhibitors; in some cases 6 M urea was added. Cleared lysates were quantitated and equal amounts of proteins were reduced, alkylated, separated by SDS-PAGE, and transferred onto PVDF membranes (Invitrogen) following standard procedures. Western blotting was performed as recommended by the respective antibody manufacturers. Patient tissue and xenograft samples were lysed in 5× volume of CFEB with protease inhibitors using Fast prep 24 (MP Biologicals). Tissue lysates were cleared and 40 μg total protein was prepared for western blotting analysis as described above. Immunoprecipitations were performed with the indicated antibodies as described (Willis, S. N. et al. (2007) Science (New York, N.Y 315:856-859; Wertz, I. E. et al. (2004) Science (New York, N.Y 303:1371-1374). PP2A activity was performed on PP2A or Mcl-1 immunoprecipitates as recommended by the manufacturer (Upstate)

[4] = test system: FBW7-WT, FBW7−/− or FBW7 mutant colon cancer cell lines (HCT116, DLD1); test: Cell viability of colon cancer cell lines by FBW7 status (CellTiter-Glo); assay type: cell-based, human; conditions: 48 hours
Description: as §1
were synthesized by Ambion and experiments were performed as described (Huang, H. C., et al (2009) Cancer cell 16:347-358). For viability experiments using stable cell lines transfected with doxycycline-inducible shRNAs to LacZ or Mcl-1 ORF, cells were plated in 10 cm2 plates with 0.2 μg/mL doxycycline for two days. On the third day, cells were plated in to 96-well plates at 5×10^3 per well for viability assays as described above. […] For western blot analysis, cells were harvested at indicated time points and processed as described above.

[5] = test system: ovarian cancer cell lines; test: Cell viability of ovarian cancer cell lines by FBW7 status; assay type: cell-based, human; conditions: FBW7-wild-type ovarian cancer cell lines that undergo mitotic arrest, relative to FBW7-mutant cells
Description: as §1

[6] = test system: ovarian cancer cell lines; test: Mitotic arrest in asynchronous ovarian cancer cell lines (western blot, phospho-histone H3 ELISA); assay type: cell-based, human; conditions: unsynchronized cell lines, 200 nM paclitaxel
Description: The unsynchronized cell lines (with FBW7 status specified in parentheses) were treated with 200 nM paclitaxel and were subsequently collected at the indicated time points for western blot and phospho-histone H3 ELISA analysis.

[7] = test system: HCT116 cells; test: Live time-lapse imaging of mitotic fate; assay type: cell-based, human
Description: HCT116 parental or FBW7−/− cells expressing shLacZ or shMcl-1 were plated at 15,000-30,000 cells per well in 96-well μ-plates (ibidi GmbH) and infected with GFP-H2B baculovirus (Invitrogen) 24 hours prior to adding paclitaxel or vincristine. Cells were imaged live at 37° C. with 5% CO2 using a Nikon TiE® microscope with a Cool Snap® CCD camera (Roper Scientific) and a Plan Apo VC 20× 0.75 NA objective. Three images with 6 μm z-steps were acquired for each position every 10 minutes for 43 hours. Mitotic fate was analyzed manually using NIS-Elements software (Nikon) and numerical data was complied and statistically analyzed using Excel (Microsoft). Fifty mitotic cells were analyzed for each condition and p-values were calculated for the change in the number of cells that exited mitosis or entered apoptosis using the one-tailed Fisher's exact test.

[8] = test system: TOV112D-X1 ovarian tumors; test: Ovarian tumor xenografts in vivo; set-up: species or system athymic nu/nu mice; conditions: tumors expressing FBW7-R505L vs FBW7-wild-type; 20 mg/kg intravenous, days 21 and 23 post implant
Description: Wild-type FBW7 TOV112D-X1 ovarian cancer cells expressing either an empty vector (vector) or the R505L point mutant (FBW7-R505L) were resuspended in Matrigel® (BD Biosciences) at a density of 1×10^8 cells/mL, and […] Matrigel® grafts containing 1×10^6 cancer cells were implanted under the kidney capsule of 8-week-old athymic nu/nu mice (Harlan Sprague Dawley). Only one graft was implanted per mouse. Once tumors became palpable on the kidney surface, tumor growth was assessed three times per week via caliper measurements of the entire kidney volume (0.523×length×width×height). On day 21 post-implant, when tumors reached an average volume of 700 mm^3, paclitaxel (APP Pharmaceuticals) was administered to both FBW7-WT and FBW7-R505L tumor groups via intravenous tail vein injection at 20 mg/kg in 5% dextrose water. Paclitaxel administration was repeated on day 23 post-implant. Statistical differences were evaluated using a two-tailed Student's t-test. P values of less than 0.05 were considered significant.

[9] = test system: myc-Mcl-1 / FLAG-FBW7; test: Recruitment of myc-Mcl-1 to FLAG-FBW7 in mitotic arrest (immunoprecipitation, HeLa cells); assay type: cell-based, human; conditions: HeLa released into paclitaxel; agent 1 hour then 3 hour 25 μM MG-132; SP600125 25 μM, SB203580 2.65 μM, CGP74514A, roscovitine 2.5 μM
Description: The indicated constructs were expressed in HeLa cells with or without scramble or cdc20 RNAi, and then synchronized and released into paclitaxel. […] Cells were subsequently collected and processed as indicated.
as §2

[10] = test system: Granta-519, HCT-116 and HeLa cells; test: Mitotic arrest and Mcl-1 degradation with MMAE (FIG. 5); assay type: cell-based

SMILES: CC(=O)O[C@H]1C(=O)[C@@]2(C)[C@H]([C@H](OC(=O)c3ccccc3)[C@]3(O)CC(OC(=O)[C@H](O)[C@@H](NC(=O)c4ccccc4)c4ccccc4)C(C)=C1C3(C)C)[C@]1(OC(C)=O)CO[C@@H]1C[C@@H]2O (relative stereo) [paclitaxel, β-(benzoylamino)-α-hydroxy-,6,12b-bis(acetyloxy)-12-(benzoyloxy)-2a,3,4,4a,5,6,9,10,11,12,12a,12b-dodecahydro-4,11-dihydroxy-4a,8,13,13-tetramethyl-5-oxo-7,11-methano-1H-cyclodeca(3,4)benz(1,2-b) oxet-9-ylester,(2aR-(2a-α,4-β,4a-β,6-β,9-α(α-R*,β-S*),11-α,12-α,12α-α,2b-α))-benzenepropanoic acid]
- killing (cell viability) ([1]; BAX−/−/BAK−/− MEFs): resistant
- sensitivity to killing ([1]; BCL-X−/− MEFs vs wild-type): more sensitive than wild-type cells
- sensitivity to killing ([1]; MCL-1−/− MEFs vs wild-type): enhanced sensitivity
- killing (cell viability) ([1]; wild-type MEFs): significantly more sensitive
- cell sensitivity upon ablation of IAP family proteins [2]: does not enhance cell sensitivity
- Mcl-1 protein level in mitotic arrest ([3]; synchronized cells (HeLa) released into the agent): declined markedly
- sensitivity to drug-induced death upon reducing Mcl-1 protein ([4]; FBW7-null HCT116 cells, doxycycline-inducible Mcl-1 shRNA): restored their sensitivity
- resistance to drug-induced cell death ([4]; FBW7-null cell lines relative to wild-type cells): more resistant
- resistance to drug-induced cell death ([4]; FBW7−/− or FBW7 mutant colon cancer cell lines relative to FBW7-WT): more resistant
- sensitivity (cell viability) [5]: sensitive
- mitotic arrest [6]: arrested in mitosis
- drug-induced apoptosis upon decreasing Mcl-1 protein levels ([7]; FBW7-null cells with Mcl-1 shRNA vs control shRNA): enhanced
- exit from drug-induced mitotic arrest (mitotic slippage) ([7]; FBW7-null vs FBW7-wild-type cells): more readily
- tumor resistance (tumor volume growth curves) [8]: more resistant

SMILES: CCn1cnc2c(Nc3cccc(Cl)c3)nc(N[C@@H]3CCCC[C@@H]3N)nc21 [CGP74514A]
- maintenance of mitotic arrest (cdc27 phosphorylation) [3]: drives cells out of mitotic arrest
- Mcl-1 degradation in mitotic arrest [3]: attenuate Mcl-1 degradation
- recruitment of myc-Mcl-1 to FLAG-FBW7 in mitotic arrest [9]: attenuates recruitment of myc-Mcl-1 to FLAG-FBW7

SMILES: CC[C@H](C)[C@@H]([C@@H](CC(=O)N1CCC[C@H]1[C@H](OC)[C@@H](C)C(=O)N[C@H](C)[C@@H](O)c1ccccc1)OC)N(C)C(=O)[C@@H](NC(=O)[C@@H](NC)C(C)C)C(C)C [MMAE, (S)—N-((3R,4S,5S)-1-((S)-2-((1R,2R)-3-(((1S,2R)-1-hydroxy-1-phenylpropan-2-yl)amino)-1-methoxy-2-methyl-3-oxopropyl)pyrrolidin-1-yl)-3-methoxy-5-methyl-1-oxoheptan-4-yl)-N,3-dimethyl-2-((S)-3-methyl-2-(methylamino)butanamido)butanamide] (H-[NMeV]V[Dil][Dolaproine]-X1)
- mitotic arrest (phospho-cdc27) [10]: promotes mitotic arrest
- Mcl-1 degradation ([10]; subsequent to mitotic arrest): Mcl-1 degradation

SMILES: C[S+]([O-])c1ccc(-c2nc(-c3ccncc3)c(-c3ccc(F)cc3)[nH]2)cc1 (centres unmarked) [SB203580]
- Mcl-1 degradation in mitotic arrest [3]: attenuate Mcl-1 degradation
- recruitment of myc-Mcl-1 to FLAG-FBW7 in mitotic arrest [9]: attenuates recruitment of myc-Mcl-1 to FLAG-FBW7

SMILES: CC[C@H](CO)Nc1nc(NCc2ccccc2)c2ncn(C(C)C)c2n1 [roscovitine]
- maintenance of mitotic arrest (cdc27 phosphorylation) [3]: drives cells out of mitotic arrest
- recruitment of myc-Mcl-1 to FLAG-FBW7 in mitotic arrest [9]: attenuates recruitment of myc-Mcl-1 to FLAG-FBW7
